We go through 7 molecules from patent US9340520B2, “Hepatitis C virus inhibitors” (Bristol-Myers Squibb Company, priority 2011, dated 2016).

A short description of data set [1]: IV and PO single dose pharmacokinetic studies in rat. It is filed as in vivo. To be noted: male Sprague-Dawley rats, plasma; for AUC: oral gavage 5 mg/kg, 24 h, read-out: 24 h rat PK (Auc); for bioavailability: oral gavage 5 mg/kg vs IV infusion 2 mg/kg, read-out: 24 h rat PK (oral bioavailability). As to the method:
The pharmacokinetics of Examples 1 to 6 and Compound-A (WO2008/021927) were characterized in male Sprague-Dawley rats (260-310 g) (see Table 2). In these studies, two groups of animals (N=3 per group) received compound either as an intravenous (IV) infusion (2 mg/kg over 10 minutes) via the jugular vein or by oral gavage (5 mg/kg) in a vehicle of 100% PEG 400 or 90:5:5 PEG 400:ethanol:TPGS, respectively. The rats in the oral dosing group were fasted overnight. Serial blood samples were obtained at 0.17 (IV only), 0.25, 0.5, 0.75, 1, 2, 4, 6, 8, and 24 h post dose. Blood samples (˜0.3 mL) were collected from the jugular vein into K3EDTA-containing tubes and then centrifuged at 4° C. (1500-2000×g) to obtain plasma. Plasma samples were stored at −20° C. until analysis by LC/MS/MS.
A bioanalytical method utilizing liquid chromatography separation followed by tandem mass spectrometry detection (LC/MS/MS) was developed for the compound analysis in rat plasma. Detection was performed using selected reaction monitoring. Ions representing the precursor (M+H)^+ species were selected in quadrupole 1 and collisionally dissociated with N2 to generate specific product ions, which were subsequently monitored by quadrupole 3. Standard curves were prepared in male rat plasma and processed in the same manner as test samples to generate quantitative data.
Pharmacokinetic parameter values were calculated using noncompartmental methods by Kinetica. Values below the lower limit of quantification (LLOQ) were not used in calculations. Area under the curve (AUC) was calculated using the linear trapezoidal rule.

Data set [2] deals with HCV genotype 1b wild type. In words: HCV replicon assay, genotype 1b wild type. It is filed as cell-based. To be noted: Hepatitis C virus, HCV replicon cells, read-out: EC50 G 1b wild type. The procedure: (§1) An HCV Replicon assay was utilized in the present disclosure, and was prepared, conducted and validated as described in commonly owned PCT/US2006/022197 and in O'Boyle et. al. Antimicrob Agents Chemother. 2005 April; 49(4):1346-53. Recommended assay methods incorporating luciferase reporters have also been used as described from commercial sources (Apath.com).
(§2) HCV-neo replicon cells and replicon cells containing resistance substitutions in the NS5A region were used to test the currently described family of compounds. The compounds were determined to have differing degrees of reduced inhibitory activity on cells containing mutations vs. the corresponding inhibitory potency against wild-type cells. Thus, the compounds of the present disclosure can be effective in inhibiting the function of the HCV NS5A protein and are understood to be as effective in combinations as previously described in application PCT/US2006/022197 and commonly owned WO/04014852. It should be understood that the compounds of the present disclosure can inhibit multiple genotypes of HCV.
For orientation: In antiviral work, replicon cells carry a viral genome segment that copies itself.

For data set [3], the system named is HCV genotype 1b LV/YH double resistant mutant. In words: HCV replicon assay, genotype 1b LV/YH double resistant mutant. It is filed as cell-based. To be noted: Hepatitis C virus, read-out: EC50 G 1b LV/YH. As to the method: as §1, §2
Another data set deals with HCV genotype 1a. In words: HCV replicon assay, genotype 1a. Particulars: Hepatitis C virus; HCV replicon cells, genotype 1a wild type; read-out: EC50 G 1a wild type. It is filed as cell-based. As to the method: as §1, §2
Data set [4] deals with genotype-1a YH single resistant mutant. In words: HCV replicon assay, genotype-1a YH single resistant mutant. It is filed as cell-based. To be noted: Hepatitis C virus, read-out: EC50 G 1a YH. As to the method:
as §1, §2

A short description of data set [5]: Cytotoxicity (CC50) in G 1a replicon cells. It is filed as cell-based. To be noted: HCV G 1a replicon cells. The procedure:
as §1

As usually defined, the AUC is concentration integrated over time. A word on the bioavailability: it is dose-corrected exposure relative to a reference, in per cent. Broadly, the CC50 is the concentration at which the toxic effect on the cells reaches its halfway point. Read a high CC50 as better tolerance by the cells. Consider `COC(=O)N[C@H](C(=O)N1CCC[C@H]1c1nc(-c2ccc(-c3ccc(-c4c[nH]c([C@@H]5CCCN5C(=O)[C@@H](NC(=O)OC)C5CCOCC5)n4)cc3)cc2)c[nH]1)C1CCOCC1` [Compound-A, reference compound], for which the AUC in data set [1] came out at 0.103 µM·h. For the same molecule, the bioavailability in data set [1] came out at 1.3%. In addition, the EC50 turned out to be 0.119 nM in data set [2], 20 nM in data set [3], 0.0511 nM with HCV genotype 1a and 13 nM in data set [4]. The molecule further displayed a CC50 in data set [5] of 63900 nM.

For the molecule `COC(=O)N[C@H](C(=O)N1[C@@H](C)CC[C@H]1c1nc(-c2ccc(-c3ccc(-c4c[nH]c([C@@H]5CC[C@H](C)N5C(=O)[C@@H](NC(=O)OC)[C@H]5C[C@@H](C)O[C@@H](C)C5)n4)cc3)cc2)c[nH]1)[C@@H]1C[C@@H](C)O[C@@H](C)C1` [Example-1], the AUC in data set [1] amounted to 1.6 µM·h. Besides, the bioavailability in data set [1] turned out to be 15%. Besides, the EC50 in data set [2] was determined as 0.00396 nM; in data set [3], 3.19 nM; with HCV genotype 1a, 0.00548 nM; in data set [4], 0.977 nM. For the same molecule, the CC50 in data set [5] was found to be 8460 nM.

With `COC(=O)N[C@H](C(=O)N1[C@@H](C)CC[C@H]1c1nc(-c2ccc(-c3ccc(-c4c[nH]c([C@@H]5CC[C@H](C)N5C(=O)[C@@H](NC(=O)OC)C5C[C@@H](C)O[C@H](C)C5)n4)cc3)cc2)c[nH]1)C1C[C@@H](C)O[C@H](C)C1` (stereo partly drawn) [Example-2, Dimethyl(4,4′-biphenyldiylbis(1H-imidazole-4,2-diyl((2S,5S)-5-methyl-2,1-pyrrolidinediyl)((1S)-1-((2R,6R)-2,6-dimethyltetrahydro-2H-pyran-4-yl)-2-oxo-2,1-ethanediyl)))biscarbamate], the AUC in data set [1] is 2.22 µM·h. Further, the bioavailability in data set [1] stood at 12%. Moreover, the EC50 is 0.00803 nM in data set [2], 0.115 nM in data set [3], 0.00643 nM in the data set on HCV genotype 1a and 0.158 nM in data set [4]. Also, in data set [5], it took 5890 nM to reach half-maximal cytotoxicity (CC50).

`COC(=O)N[C@H](C(=O)N1[C@@H](C)CC[C@H]1c1nc(-c2ccc(-c3ccc(-c4c[nH]c([C@@H]5CC[C@H](C)N5C(=O)[C@@H](NC(=O)OC)C5C[C@@H](C)O[C@H](C)C5)n4)c(C)c3)cc2)c[nH]1)C1C[C@@H](C)O[C@H](C)C1` (stereo partly shown) [Example-3]: in data set [1], the AUC stood at 4.49 µM·h. Besides, the bioavailability in data set [1] was found to be 17%. Further, the EC50 worked out at 0.00641 nM in data set [2], 0.191 nM in data set [3], 0.0052 nM in the data set on HCV genotype 1a and 1.08 nM in data set [4]. This molecule gave a CC50 in data set [5] of 6150 nM.

For `COC(=O)N[C@H](C(=O)N1[C@@H](C)CC[C@H]1c1nc(-c2ccc(-c3ccc(-c4c[nH]c([C@@H]5CC[C@H](C)N5C(=O)[C@@H](NC(=O)OC)C5C[C@@H](C)O[C@H](C)C5)n4)c(F)c3)cc2)c[nH]1)C1C[C@@H](C)O[C@H](C)C1` (stereo partly shown) [Example-4], the AUC in data set [1] worked out at 1.73 µM·h. The bioavailability in data set [1] was determined as 16%. In addition, the EC50 in data set [2] was 0.00415 nM; in data set [3], 0.436 nM; in the data set with HCV genotype 1a, 0.00595 nM; in data set [4] it was 0.402 nM. Moreover, the midpoint of cytotoxicity in data set [5], the CC50, lay at 7750 nM.

For the molecule `COC(=O)N[C@H](C(=O)N1[C@H](c2nc(-c3ccc(-c4ccc(-c5c[nH]c([C@@H]6C[C@@]7(C)C[C@H]7N6C(=O)[C@@H](NC(=O)OC)C6C[C@@H](C)O[C@H](C)C6)n5)cc4)cc3)c[nH]2)C[C@@]2(C)C[C@@H]12)C1C[C@@H](C)O[C@H](C)C1` (stereo partly shown) [Example-5], the AUC in data set [1] was 0.539 µM·h. In addition, the bioavailability in data set [1] came to 6.3%. Moreover, the EC50 in data set [2] was 0.00685 nM; in data set [3], 0.00985 nM; in the data set with HCV genotype 1a, 0.00372 nM; in data set [4], 0.0607 nM. Further, half-maximal cytotoxicity in data set [5] (CC50) was put at 5340 nM.

`COC(=O)N[C@H](C(=O)N1CCC[C@H]1c1nc(-c2ccc(-c3ccc(-c4c[nH]c([C@@H]5CCCN5C(=O)[C@@H](NC(=O)OC)C5C[C@@H](C)O[C@H](C)C5)n4)cc3)cc2)c[nH]1)C1C[C@@H](C)O[C@H](C)C1` (stereo partly shown) [Example-6]: the AUC in data set [1] was determined as 1.36 µM·h. The bioavailability in data set [1] worked out at 5%. For the same molecule, the EC50 is 0.0367 nM in data set [2], 0.659 nM in data set [3], 0.0162 nM with HCV genotype 1a and 0.383 nM in data set [4]. Half-maximal cytotoxicity in data set [5] (CC50) was put at 15400 nM.
